According to patent publication US20220362163A1, “METHODS AND COMPOSITIONS FOR CANCER TREATMENT USING NANOPARTICLES CONJUGATED WITH MULTIPLE LIGANDS FOR BINDING RECEPTORS ON NK CELLS” (The University of North Carolina at Chapel Hill, priority 2019, published 2022):

Test system: A431 tumor
Experiment: A431 tumor model in T-cell deficient Nu mice
Settings: i.v. at 6, 8, 10 days post-inoculation

## COc1cccc2c1C(=O)c1c(O)c3c(c(O)c1C2=O)C[C@@](O)(C(=O)CO)C[C@@H]3O[C@H]1C[C@H](N)[C@@H](O)[C@H](C)O1 [free EPI, epirubicin]
  effect on tumor growth: slightly reduced the rate of tumor growth
